Data: ChEMBL document CHEMBL1201862, “PubChem BioAssay data set” (2004)
The source made the active and inactive calls.

Key:
[1] = biological target: T1, Mannose-6-phosphate isomerase (Homo sapiens, UniProt P34949); assay: human PMI inhibitors, high substrate, primary screen, biochemical, fluorescence intensity, high mannose 6-phosphate (AID 1220)
T1 sequence (P34949 whole entry): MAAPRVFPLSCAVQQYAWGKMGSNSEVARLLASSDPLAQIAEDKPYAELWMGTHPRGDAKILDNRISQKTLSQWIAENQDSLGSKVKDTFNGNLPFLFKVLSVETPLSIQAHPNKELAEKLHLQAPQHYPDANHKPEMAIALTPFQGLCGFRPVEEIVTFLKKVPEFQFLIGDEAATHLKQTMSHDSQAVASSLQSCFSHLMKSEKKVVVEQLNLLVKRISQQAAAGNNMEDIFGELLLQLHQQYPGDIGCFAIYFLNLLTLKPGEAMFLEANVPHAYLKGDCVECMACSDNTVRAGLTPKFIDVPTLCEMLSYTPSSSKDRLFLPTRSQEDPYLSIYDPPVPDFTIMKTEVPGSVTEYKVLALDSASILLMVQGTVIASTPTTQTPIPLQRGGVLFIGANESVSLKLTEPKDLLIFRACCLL

cells [2] = assay type: functional, cell-based
cells [3] = assay type: functional, cell-based; remark: listed apart in the source
Cytochrome P450 1A2 = biological target: T2, Cytochrome P450 1A2 (Homo sapiens, UniProt P05177);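 further: PubChem cytochrome P450 panel assay, CYP1A2 panel member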
T2 sequence (P05177 whole entry): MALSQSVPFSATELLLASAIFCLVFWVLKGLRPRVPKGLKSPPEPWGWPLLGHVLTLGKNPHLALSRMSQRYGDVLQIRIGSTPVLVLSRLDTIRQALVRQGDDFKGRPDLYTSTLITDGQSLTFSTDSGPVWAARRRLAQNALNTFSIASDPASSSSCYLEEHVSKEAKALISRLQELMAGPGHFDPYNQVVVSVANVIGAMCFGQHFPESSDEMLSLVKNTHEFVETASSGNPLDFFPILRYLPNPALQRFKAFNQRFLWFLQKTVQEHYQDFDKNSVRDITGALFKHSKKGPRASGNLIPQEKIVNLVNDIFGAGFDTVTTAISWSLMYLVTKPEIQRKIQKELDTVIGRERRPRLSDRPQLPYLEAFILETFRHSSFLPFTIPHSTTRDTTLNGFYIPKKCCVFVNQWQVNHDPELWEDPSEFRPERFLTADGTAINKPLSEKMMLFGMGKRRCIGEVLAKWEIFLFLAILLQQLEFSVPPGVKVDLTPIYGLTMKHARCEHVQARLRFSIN

Cytochrome P450 3A4 = Cytochrome P450 3A4 (Homo sapiens, UniProt P08684);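 further: CYP3A4 tested as one member of a cytochrome P450 panel screen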
Cytochrome P450 2C9 = Cytochrome P450 2C9 (Homo sapiens, UniProt P11712)
cells [4] = assay type: functional, cell-based; remark: listed apart in the source
cells [5] = assay type: functional, cell-based; remark: listed apart in the source
[6] = biological target: T3, Apoptotic protease-activating factor 1 (Homo sapiens, UniProt O14727); assay type: functional
T3 sequence (O14727 whole entry): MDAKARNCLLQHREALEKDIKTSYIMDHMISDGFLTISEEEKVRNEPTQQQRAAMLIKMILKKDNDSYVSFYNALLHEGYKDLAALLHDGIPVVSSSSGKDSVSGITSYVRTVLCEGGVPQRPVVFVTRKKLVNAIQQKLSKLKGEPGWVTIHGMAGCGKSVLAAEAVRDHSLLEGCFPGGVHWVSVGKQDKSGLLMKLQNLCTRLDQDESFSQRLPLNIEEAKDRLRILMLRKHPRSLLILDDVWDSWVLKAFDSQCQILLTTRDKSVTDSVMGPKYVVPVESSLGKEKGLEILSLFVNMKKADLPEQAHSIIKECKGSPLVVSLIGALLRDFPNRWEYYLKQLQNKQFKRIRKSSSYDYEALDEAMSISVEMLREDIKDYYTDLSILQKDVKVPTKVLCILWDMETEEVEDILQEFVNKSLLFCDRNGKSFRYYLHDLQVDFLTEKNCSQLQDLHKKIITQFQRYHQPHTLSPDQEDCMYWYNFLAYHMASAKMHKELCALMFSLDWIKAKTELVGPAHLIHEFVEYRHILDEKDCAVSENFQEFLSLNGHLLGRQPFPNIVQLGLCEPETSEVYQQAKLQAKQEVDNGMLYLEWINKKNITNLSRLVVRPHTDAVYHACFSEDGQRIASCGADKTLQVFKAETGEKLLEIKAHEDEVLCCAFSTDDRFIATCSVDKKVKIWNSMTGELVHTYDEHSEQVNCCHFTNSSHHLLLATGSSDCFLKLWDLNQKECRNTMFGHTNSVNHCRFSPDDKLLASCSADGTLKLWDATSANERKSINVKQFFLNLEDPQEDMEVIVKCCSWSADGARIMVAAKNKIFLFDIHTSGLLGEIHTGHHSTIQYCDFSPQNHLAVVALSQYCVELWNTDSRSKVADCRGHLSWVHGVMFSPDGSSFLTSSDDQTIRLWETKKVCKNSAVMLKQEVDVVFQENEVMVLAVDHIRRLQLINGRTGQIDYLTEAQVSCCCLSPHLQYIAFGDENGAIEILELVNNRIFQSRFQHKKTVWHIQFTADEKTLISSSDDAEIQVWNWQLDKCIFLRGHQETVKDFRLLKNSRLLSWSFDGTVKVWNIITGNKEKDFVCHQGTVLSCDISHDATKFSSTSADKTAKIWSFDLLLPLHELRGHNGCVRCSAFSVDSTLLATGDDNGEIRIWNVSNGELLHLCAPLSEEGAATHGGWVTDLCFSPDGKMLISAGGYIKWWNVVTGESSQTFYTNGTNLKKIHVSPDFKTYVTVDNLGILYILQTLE

cells [7] = assay type: functional
Caspase-6 = biological target: T4, Caspase-6 (Homo sapiens, UniProt P55212); assay: human caspase-6 inhibitors, dose response, biochemical, VEID-R110 fluorescence, cherry-pick (AID 720632)
T4 sequence (P55212 whole entry): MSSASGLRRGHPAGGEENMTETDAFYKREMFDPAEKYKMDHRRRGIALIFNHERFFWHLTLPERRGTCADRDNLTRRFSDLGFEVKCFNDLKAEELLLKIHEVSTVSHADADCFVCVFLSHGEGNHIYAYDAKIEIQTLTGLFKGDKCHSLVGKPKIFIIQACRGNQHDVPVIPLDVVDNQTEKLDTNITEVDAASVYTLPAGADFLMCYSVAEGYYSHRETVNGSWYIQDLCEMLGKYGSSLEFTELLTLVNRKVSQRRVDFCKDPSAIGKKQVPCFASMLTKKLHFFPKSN

[8] = cytotoxicity in HEK-293T cells, dose response, cytotoxicity control for BCR NF-kB inhibitor project, luminescence, B-cell screen hits (AID 489021); assay type: functional, cell-based;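 further: HEK-293T cells carrying an NF-kB luciferase reporter; cells exposed to compound for about 14 hours before viability readout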
[9] = biological target: T5, Zinc finger protein mex-5 (Caenorhabditis elegans, UniProt Q9XUB2); assay: MEX-5/TCR-2 RNA interaction inhibitors, dose response, biochemical, C. elegans, fluorescence polarization (AID 1960)
T5 sequence (Q9XUB2 whole entry): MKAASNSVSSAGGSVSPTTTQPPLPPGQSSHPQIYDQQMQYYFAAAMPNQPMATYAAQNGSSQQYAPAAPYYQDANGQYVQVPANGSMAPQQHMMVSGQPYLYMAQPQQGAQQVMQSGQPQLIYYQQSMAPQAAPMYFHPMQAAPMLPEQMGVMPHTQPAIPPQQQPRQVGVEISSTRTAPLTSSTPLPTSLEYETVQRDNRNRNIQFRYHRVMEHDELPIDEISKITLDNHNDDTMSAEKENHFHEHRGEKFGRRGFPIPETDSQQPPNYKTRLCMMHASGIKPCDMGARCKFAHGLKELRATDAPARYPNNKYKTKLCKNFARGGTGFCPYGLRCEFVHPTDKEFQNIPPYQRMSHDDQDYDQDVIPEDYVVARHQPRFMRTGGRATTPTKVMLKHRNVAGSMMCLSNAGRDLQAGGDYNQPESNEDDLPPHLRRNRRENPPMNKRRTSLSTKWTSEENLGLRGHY

[10] = biological target: T6, RNA-binding protein pos-1 (Caenorhabditis elegans, UniProt G5EF15); assay: inhibitors of POS-1/mex-3 RNA binding, dose response, biochemical, fluorescence polarization (AID 1964);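 further: purified POS-1 fused to maltose binding protein made in E. coli; potency of compounds blocking POS-1 binding to fluorescent RNA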
T6 sequence (G5EF15 whole entry): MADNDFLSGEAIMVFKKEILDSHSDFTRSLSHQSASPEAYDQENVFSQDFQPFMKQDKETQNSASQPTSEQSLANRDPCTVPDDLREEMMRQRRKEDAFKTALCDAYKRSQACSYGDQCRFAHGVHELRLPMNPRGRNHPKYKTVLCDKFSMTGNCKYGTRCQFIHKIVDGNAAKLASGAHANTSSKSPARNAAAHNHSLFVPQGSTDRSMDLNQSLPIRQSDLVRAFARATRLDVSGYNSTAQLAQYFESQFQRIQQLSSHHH

[11] = biological target: T7, Corticotropin-releasing factor receptor 2/Corticotropin-releasing factor-binding protein (Homo sapiens, UniProt P24387+Q13324); assay: activators of CRF receptor 2 with binding protein – uHTS hits, confirmation (AID 602473); assay type: functional; conditions: read-out: EC50_Mean
T7 sequence (Q13324 whole entry): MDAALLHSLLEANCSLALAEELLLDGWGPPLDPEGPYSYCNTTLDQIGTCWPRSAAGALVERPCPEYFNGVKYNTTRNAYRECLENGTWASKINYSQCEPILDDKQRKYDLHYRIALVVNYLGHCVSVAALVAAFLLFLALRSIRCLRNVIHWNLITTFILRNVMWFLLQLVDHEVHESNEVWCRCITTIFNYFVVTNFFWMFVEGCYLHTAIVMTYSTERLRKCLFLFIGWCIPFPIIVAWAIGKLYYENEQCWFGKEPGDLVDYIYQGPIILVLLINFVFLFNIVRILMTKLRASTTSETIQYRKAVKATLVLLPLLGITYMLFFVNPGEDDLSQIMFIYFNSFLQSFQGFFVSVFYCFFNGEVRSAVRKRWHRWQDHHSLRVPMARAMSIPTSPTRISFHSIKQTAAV
T7 sequence (P24387 whole entry): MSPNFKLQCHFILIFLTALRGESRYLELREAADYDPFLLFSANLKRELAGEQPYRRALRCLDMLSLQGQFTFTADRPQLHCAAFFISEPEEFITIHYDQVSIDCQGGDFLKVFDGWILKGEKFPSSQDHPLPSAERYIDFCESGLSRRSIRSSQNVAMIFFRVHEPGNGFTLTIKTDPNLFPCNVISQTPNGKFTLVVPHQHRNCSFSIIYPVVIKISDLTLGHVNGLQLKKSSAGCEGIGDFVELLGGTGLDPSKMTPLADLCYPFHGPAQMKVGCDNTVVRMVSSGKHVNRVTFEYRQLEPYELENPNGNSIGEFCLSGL

[12] = CRF-BP/CRF-R2 complex antagonists, dose response, cell-based, uHTS hits, 384-well (AID 651639); assay type: functional, Homo sapiens; conditions: read-out: IC50_Mean
[13] = biological target: T7, Corticotropin-releasing factor receptor 2/Corticotropin-releasing factor-binding protein; assay: Dose Response confirmation of uHTS hits for small molecule antagonists of the CRF-binding protein and CRF-R2 receptor complex.; assay type: functional; conditions: read-out: IC50_Mean

Cytochrome P450 2C9, sequence (P11712 whole entry): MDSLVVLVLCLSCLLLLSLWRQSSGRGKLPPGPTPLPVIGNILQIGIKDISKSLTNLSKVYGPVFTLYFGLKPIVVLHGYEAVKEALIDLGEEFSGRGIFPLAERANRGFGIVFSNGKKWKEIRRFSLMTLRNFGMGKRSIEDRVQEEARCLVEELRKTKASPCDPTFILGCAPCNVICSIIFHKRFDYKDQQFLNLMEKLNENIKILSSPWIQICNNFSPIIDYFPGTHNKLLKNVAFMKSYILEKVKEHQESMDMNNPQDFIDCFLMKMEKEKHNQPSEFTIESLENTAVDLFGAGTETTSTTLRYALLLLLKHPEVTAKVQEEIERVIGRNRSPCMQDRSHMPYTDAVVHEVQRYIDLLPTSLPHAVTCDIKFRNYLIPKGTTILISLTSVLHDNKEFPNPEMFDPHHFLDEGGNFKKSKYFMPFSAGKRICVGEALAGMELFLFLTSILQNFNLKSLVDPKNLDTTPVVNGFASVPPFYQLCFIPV
Cytochrome P450 3A4, sequence (P08684 whole entry): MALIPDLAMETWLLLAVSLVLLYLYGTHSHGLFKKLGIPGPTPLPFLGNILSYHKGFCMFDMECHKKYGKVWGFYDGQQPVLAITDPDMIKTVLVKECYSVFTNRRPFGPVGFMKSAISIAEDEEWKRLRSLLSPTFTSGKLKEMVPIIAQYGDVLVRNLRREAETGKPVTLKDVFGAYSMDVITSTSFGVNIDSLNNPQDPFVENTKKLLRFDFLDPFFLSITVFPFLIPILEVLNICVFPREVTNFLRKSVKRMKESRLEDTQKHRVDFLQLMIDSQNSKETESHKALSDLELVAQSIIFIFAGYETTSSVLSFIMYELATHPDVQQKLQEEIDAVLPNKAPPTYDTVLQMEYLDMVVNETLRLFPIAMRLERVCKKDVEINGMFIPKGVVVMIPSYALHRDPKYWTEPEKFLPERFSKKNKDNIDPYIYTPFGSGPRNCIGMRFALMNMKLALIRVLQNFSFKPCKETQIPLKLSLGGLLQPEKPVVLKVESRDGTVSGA

For `O=C(CSc1ccc(-c2ccccn2)nn1)c1ccc(F)cc1`, the IC50 [1] was > 50 µM (not active).
For `O=C(COc1ccc(F)cc1)NNC(=O)c1cc2ccccc2oc1=O`, the EC50 (cells [2]) was > 29.9 µM (inactive) and the IC50 (cells [3]) was > 29.9 µM (inactive).
With `O=C(NCc1ccccc1)c1ccc(Cl)cc1[N+](=O)[O-]` the AC50 (Cytochrome P450 1A2) was 20 µM (inconclusive), the AC50 (Cytochrome P450 3A4) was 22.4 µM (inconclusive) and the AC50 (Cytochrome P450 2C9) was “inconclusive”.
With `Cc1ccc(-n2cc(C(=O)c3ccc4ccccc4c3O)cn2)cc1` the AC50 (Cytochrome P450 1A2) was 1.41 µM (inconclusive) and the AC50 (Cytochrome P450 2C9) was “inconclusive”.
For `CC(=C1C(=O)c2ccccc2C1=O)N1CCc2ccccc2C1`, the EC50 (cells [2]) was > 29.9 µM (inactive) and the IC50 (cells [3]) was > 29.9 µM (inactive).
With `COc1c(NC(C)=O)c2ccccc2c2ccccc12` the AC50 (Cytochrome P450 2C9) was “inconclusive”.
With `CC1CCN(S(=O)(=O)c2ccc3c4c2CC(=O)N4CC(C)S3)CC1` (stereo not given) the EC50 (cells [4]) was > 350 µM (not active), the EC50 (cells [5]) was > 350 µM (not active) and the IC50 [6] was 3.64 µM (active).
In the case of `Oc1ccc(/C=N/CC2COc3ccccc3O2)cc1` (stereo not given), the EC50 (cells [2]) is reported as > 29.9 µM (inactive) and the IC50 (cells [3]) is reported as > 29.9 µM (inactive).
In the case of `O=C(OCn1nnc2ccccc2c1=O)c1ccc(N2CCOCC2)c([N+](=O)[O-])c1`, the IC50 (cells [7]) is reported as 10 µM (active).
For `CCCCNS(=O)(=O)c1cc(-c2nn(C)c(=O)c3ccccc23)ccc1C`, the AC50 (Caspase-6) was 21.3 µM (active).
With `CC(=O)c1ccc(NC(=O)c2cc(CC(C)C)on2)cc1` the IC50 (cells [7]) was 12 µM (active).
With `CN1C(=O)CSc2ccc(NC(=O)N3CCN(c4ccccc4)CC3)cc21` the IC50 [8] was > 80 µM (inactive).
For `Cc1ccc2c(c1)c1c3n2CCN=C3CCC1`, the IC50 (cells [7]) was 11.9 µM (active).
For `C[C@H](O)[C@@H]1C(=O)N2CCc3c([nH]c4ccccc34)[C@@H]2C[C@@H]1N(C)C(=O)Nc1cccc2ccccc12`, the AC50 (Caspase-6) was 35.9 µM (active).
With `O=C(Nc1ccccc1F)c1coc(=O)c(Br)c1` the EC50 [9] was > 300 µM (not active), the AC50 (Caspase-6) was 23.8 µM (active) and the EC50 [10] was > 300 µM (not active).
For `CCN(CC(=O)NCc1cccs1)S(=O)(=O)c1ccc(C(C)C)cc1`, the AC50 (Cytochrome P450 2C9) was “inconclusive”.
In the case of `Cc1nc2c(C(=O)NCCc3ccccc3)cnn2c(O)c1Cl`, the EC50 [11] is reported as > 53 µM (inactive), the IC50 [1] is reported as > 50 µM (not active) and the IC50 [12] is reported as > 20 µM (inactive). For the same compound, the IC50 [13] was 44.5 µM (active).
